Experimental data published in US12440435B2, “Solubilization of poorly soluble cooling substances” (SYMRISE AG, priority 2018, dated 2025).

Experiment: Dissolving the cooling agent in a solvent with stepwise heating, then cooling to room temperature and observing crystallisation
Type: physicochemical

Compound: COc1ccc(NC(=O)[C@@H]2C[C@H](C)CC[C@H]2C(C)C)cc1 [(1R,2S,5R)-N-(4-methoxyphenyl)-5-methyl-2-(1-methylethyl)-cyclohexane-carboxamide]
- amount of cooling agent that can be dissolved (in 2-hydroxypropyl (2-isopropyl-5-methyl-cyclohexyl) carbonate, (2-isopropyl-5-methyl-cyclohexyl) 2-hydroxypropanoate or a mixture of both, based on the total weight of the composition): up to 12 % by weight
- solubility in medium-chain triglycerides (medium-chain triglycerides as solvent, even at 60° C.): insoluble
